Earlier results on one molecule are cited in patent publication US11459613B2, “Methods of characterizing resistance to modulators of Cereblon” (THE BRIGHAM AND WOMEN'S HOSPITAL, INC., priority 2015, dated 2022).

Molecules are shown by their SMILES.

The conditions of this series: lenalidomide in combination with dexamethasone, front-line therapy, standard-risk multiple myeloma.

Take `Nc1cccc2c1CN(C1CCC(=O)NC1=O)C2=O` (stereo not shown) [lenalidomide]: the “disease progression develops after initiating treatment (on average)” value is reported as 11 months.
